{"source": "paper PMC5524711", "about": "(Scientific Reports, 2017)", "key": {"α1β2γ2 GABAA receptors": {"biological_target": "T1, α1β2γ2 GABAA receptors (UniProt P18508+P47870+P62813)", "T1 construct": "expressed in transfected cells; host or cells: Xenopus laevis oocytes (cRNA injection)", "T1 sequence (P62813 28-455)": "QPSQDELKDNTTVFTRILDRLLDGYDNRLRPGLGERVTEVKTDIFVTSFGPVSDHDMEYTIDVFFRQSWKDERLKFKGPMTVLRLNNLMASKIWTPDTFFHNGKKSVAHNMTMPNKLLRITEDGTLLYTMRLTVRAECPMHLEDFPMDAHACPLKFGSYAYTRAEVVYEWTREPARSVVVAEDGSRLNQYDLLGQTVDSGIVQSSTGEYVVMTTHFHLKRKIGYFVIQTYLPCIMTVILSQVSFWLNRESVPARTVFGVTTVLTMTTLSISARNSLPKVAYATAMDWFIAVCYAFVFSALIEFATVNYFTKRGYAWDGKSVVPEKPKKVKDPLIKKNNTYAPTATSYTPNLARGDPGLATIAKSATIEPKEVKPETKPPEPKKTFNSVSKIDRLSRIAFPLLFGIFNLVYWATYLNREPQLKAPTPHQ", "T1 sequence (P47870 26-474 isoform P47870-1 limits assumed)": "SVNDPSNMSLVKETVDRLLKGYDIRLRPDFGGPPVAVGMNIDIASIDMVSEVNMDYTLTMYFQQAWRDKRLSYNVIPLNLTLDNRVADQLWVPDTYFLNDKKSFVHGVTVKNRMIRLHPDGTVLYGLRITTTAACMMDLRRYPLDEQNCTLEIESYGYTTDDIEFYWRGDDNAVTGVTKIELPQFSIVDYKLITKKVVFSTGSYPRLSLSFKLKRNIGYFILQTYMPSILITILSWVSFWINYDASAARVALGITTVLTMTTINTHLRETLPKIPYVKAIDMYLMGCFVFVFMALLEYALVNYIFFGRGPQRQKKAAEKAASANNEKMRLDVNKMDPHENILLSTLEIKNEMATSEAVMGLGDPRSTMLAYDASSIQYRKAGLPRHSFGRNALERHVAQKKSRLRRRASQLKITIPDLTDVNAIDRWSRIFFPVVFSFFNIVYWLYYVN", "T1 sequence (P18508 39-466)": "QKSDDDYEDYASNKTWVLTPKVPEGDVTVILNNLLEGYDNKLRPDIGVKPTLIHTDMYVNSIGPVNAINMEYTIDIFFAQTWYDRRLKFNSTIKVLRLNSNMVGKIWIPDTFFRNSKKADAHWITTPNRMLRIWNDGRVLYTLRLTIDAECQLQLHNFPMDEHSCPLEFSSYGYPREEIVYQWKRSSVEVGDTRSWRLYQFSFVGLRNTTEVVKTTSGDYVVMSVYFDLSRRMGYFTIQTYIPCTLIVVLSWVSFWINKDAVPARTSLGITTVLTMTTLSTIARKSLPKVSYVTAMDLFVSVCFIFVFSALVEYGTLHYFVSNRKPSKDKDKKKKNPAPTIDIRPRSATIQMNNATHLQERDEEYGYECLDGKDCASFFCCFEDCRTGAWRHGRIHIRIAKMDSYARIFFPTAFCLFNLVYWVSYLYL", "assay": "Xenopus oocyte two-electrode voltage clamp", "type": "cell-based, rat and human"}, "α1β1γ2 GABAA receptors": {"biological_target": "T2, α1β1γ2 GABAA receptors (Rattus norvegicus, UniProt P15431+P18508+P62813)", "T2 construct": "expressed in transfected cells; host or cells: Xenopus laevis oocytes (cRNA injection)", "assay": "Xenopus oocyte two-electrode voltage clamp", "type": "cell-based", "conditions": "a1b1g2"}, "α1β2γ1 GABAA receptors": {"biological_target": "T3, α1β2γ1 GABAA receptors (UniProt P47870+P62813+Q8N1C3)", "T3 construct": "expressed in transfected cells; host or cells: Xenopus laevis oocytes (cRNA injection); γ1 cDNA synthesized by GenScript in pGEMHE", "assay": "Xenopus oocyte two-electrode voltage clamp", "type": "cell-based, rat and human", "conditions": "a1b2g1"}, "α1β3 GABAA receptors": {"biological_target": "T4, α1β3 GABAA receptors (Rattus norvegicus, UniProt P62813+P63079)", "T4 construct": "expressed in transfected cells; host or cells: Xenopus laevis oocytes (cRNA injection)", "assay": "Xenopus oocyte two-electrode voltage clamp", "type": "cell-based", "conditions": "a1b3"}, "α5β3 GABAA receptors": {"biological_target": "T5, α5β3 GABAA receptors (UniProt P31644+P63079)", "T5 construct": "expressed in transfected cells; host or cells: Xenopus laevis oocytes (cRNA injection)", "T5 sequence (P31644 32-462)": "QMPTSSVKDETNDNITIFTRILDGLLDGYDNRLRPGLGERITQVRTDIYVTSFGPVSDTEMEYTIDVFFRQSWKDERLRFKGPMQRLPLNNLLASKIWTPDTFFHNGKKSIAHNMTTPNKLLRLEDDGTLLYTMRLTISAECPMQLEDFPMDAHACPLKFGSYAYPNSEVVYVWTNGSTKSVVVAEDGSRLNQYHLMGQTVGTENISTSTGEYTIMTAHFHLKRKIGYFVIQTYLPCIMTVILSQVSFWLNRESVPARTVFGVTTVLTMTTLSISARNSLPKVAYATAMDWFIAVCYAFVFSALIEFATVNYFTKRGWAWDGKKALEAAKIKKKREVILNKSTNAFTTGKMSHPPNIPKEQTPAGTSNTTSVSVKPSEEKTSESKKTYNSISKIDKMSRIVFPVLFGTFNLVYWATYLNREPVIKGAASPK", "T5 sequence (P63079 26-473)": "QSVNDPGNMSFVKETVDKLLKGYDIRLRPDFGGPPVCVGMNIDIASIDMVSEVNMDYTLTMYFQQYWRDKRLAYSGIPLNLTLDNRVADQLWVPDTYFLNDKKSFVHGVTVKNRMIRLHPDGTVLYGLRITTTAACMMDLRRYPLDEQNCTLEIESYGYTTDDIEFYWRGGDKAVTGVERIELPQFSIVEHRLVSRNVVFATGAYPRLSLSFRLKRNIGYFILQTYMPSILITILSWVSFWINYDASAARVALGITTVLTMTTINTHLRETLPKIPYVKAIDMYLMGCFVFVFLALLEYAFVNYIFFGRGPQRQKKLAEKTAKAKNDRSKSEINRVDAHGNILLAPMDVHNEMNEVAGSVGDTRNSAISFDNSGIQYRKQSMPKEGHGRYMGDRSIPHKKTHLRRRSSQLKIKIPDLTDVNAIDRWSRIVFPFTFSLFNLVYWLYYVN", "assay": "Xenopus oocyte two-electrode voltage clamp", "type": "cell-based, rat", "conditions": "a5b3"}, "α4β3δ GABAA receptors [1]": {"biological_target": "T6, α4β3δ GABAA receptors (UniProt P18506+P48169+P63079)", "T6 construct": "expressed in transfected cells; host or cells: Xenopus laevis oocytes (cRNA injection)", "assay": "Xenopus oocyte two-electrode voltage clamp", "type": "cell-based, rat", "conditions": "a4b3d; [Zn++] 1 µM"}, "α4β3γ2 GABAA receptors [2]": {"biological_target": "T7, α4β3γ2 GABAA receptors (UniProt P18508+P48169+P63079)", "T7 construct": "expressed in transfected cells; host or cells: Xenopus laevis oocytes (cRNA injection)", "assay": "Xenopus oocyte two-electrode voltage clamp", "type": "cell-based, rat", "conditions": "a4b3g2; [Zn++] 1 µM"}, "α5β3γ2 GABAA receptors": {"biological_target": "T8, α5β3γ2 GABAA receptors (UniProt P18508+P31644+P63079)", "T8 construct": "expressed in transfected cells; host or cells: Xenopus laevis oocytes (cRNA injection)", "T8 sequence (P31644 32-462)": "as the sequence (P31644 32-462) above", "T8 sequence (P63079 26-473)": "as the sequence (P63079 26-473) above", "T8 sequence (P18508 39-466)": "as the sequence (P18508 39-466) above", "assay": "Xenopus oocyte two-electrode voltage clamp", "type": "cell-based, rat", "conditions": "a5b3g2"}, "α1β3γ2 GABAA receptors": {"biological_target": "T9, α1β3γ2 GABAA receptors (Rattus norvegicus, UniProt P18508+P62813+P63079)", "T9 construct": "expressed in transfected cells; host or cells: Xenopus laevis oocytes (cRNA injection)", "assay": "Xenopus oocyte two-electrode voltage clamp", "type": "cell-based", "conditions": "a1b3g2"}, "α1β2 GABAA receptors": {"biological_target": "T10, α1β2 GABAA receptors (UniProt P47870+P62813)", "T10 construct": "expressed in transfected cells; host or cells: Xenopus laevis oocytes (cRNA injection)", "assay": "Xenopus oocyte two-electrode voltage clamp", "type": "cell-based, rat and human", "conditions": "a1b2"}, "[3]": {"biological_target": "T11, α1β2(N265S)γ2 GABAA receptors (UniProt P18508+P47870+P62813, N289S)", "T11 construct": "expressed in transfected cells; host or cells: Xenopus laevis oocytes (cRNA injection)", "T11 sequence (P62813 28-455)": "as the sequence (P62813 28-455) above", "T11 sequence (P47870 25-474 isoform P47870-1 N289S limits assumed)": "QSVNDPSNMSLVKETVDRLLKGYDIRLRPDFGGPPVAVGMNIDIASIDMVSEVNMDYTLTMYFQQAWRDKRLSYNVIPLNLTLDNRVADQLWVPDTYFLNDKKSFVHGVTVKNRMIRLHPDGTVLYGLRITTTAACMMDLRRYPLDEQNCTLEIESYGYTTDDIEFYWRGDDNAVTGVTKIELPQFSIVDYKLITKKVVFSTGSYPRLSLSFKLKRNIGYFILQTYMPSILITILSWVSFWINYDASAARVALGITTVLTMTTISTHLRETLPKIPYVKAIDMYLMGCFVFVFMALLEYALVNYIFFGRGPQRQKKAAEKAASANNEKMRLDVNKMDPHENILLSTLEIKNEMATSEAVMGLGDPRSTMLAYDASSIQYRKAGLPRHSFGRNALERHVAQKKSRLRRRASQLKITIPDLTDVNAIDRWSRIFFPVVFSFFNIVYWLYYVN", "T11 sequence (P18508 39-466)": "as the sequence (P18508 39-466) above", "assay": "Xenopus oocyte two-electrode voltage clamp", "type": "cell-based, rat and human", "conditions": "a1b2(N265S)g2"}, "α1β3δ GABAA receptors": {"biological_target": "T12, α1β3δ GABAA receptors (Rattus norvegicus, UniProt P18506+P62813+P63079)", "T12 construct": "expressed in transfected cells; host or cells: Xenopus laevis oocytes (cRNA injection)", "assay": "Xenopus oocyte two-electrode voltage clamp", "type": "cell-based", "conditions": "a1b3d"}, "α4β3δ GABAA receptors [4]": {"biological_target": "T6, α4β3δ GABAA receptors", "parameters": "method as in Borghese et al., 2006", "conditions": "a4b3d; ref Borghese et al., 2006; cited from earlier work"}, "α4β3γ2 GABAA receptors [5]": {"biological_target": "T7, α4β3γ2 GABAA receptors", "parameters": "method as in Borghese et al., 2006", "conditions": "a4b3g2; ref Borghese et al., 2006; cited from earlier work"}, "[6]": {"biological_target": "T11, α1β2(N265S)γ2 GABAA receptors", "parameters": "method as in PMID 19741491", "conditions": "concentrations up to 1 mM; cited from earlier work"}, "[7]": {"biological_target": "GABAA receptors, benzodiazepine site (washed rat brain membranes)", "assay": "[3H]Flunitrazepam binding and displacement", "conditions": "read-out: [3H]Flunitrazepam Binding, displacement, 1 nM [3H]flunitrazepam, 10 µM GABA", "procedure": "Membrane Preparation. These experiments were performed at the University of Colorado Health Sciences Center, Denver, CO. Experiments were approved by the Institutional Animal Care and Use Committee (IACUC) of the University of Colorado, Denver, and were performed in accordance with the NIH Guide for the Care and Use of Laboratory Animals. Male Sprague-Dawley rats (200–250 g) were maintained in an AAALAC-accredited facility and sacrificed by CO2 exposure and decapitation. Brains were removed, and membranes were prepared from the forebrain as described previously. Ligand binding assay. […] Bound and free ligand were separated by rapid filtration under vacuum over Whatman GF/B filters presoaked in buffer in a 24 port Brandel Cell Harvester. Filters were washed with 2 × 5 ml of ice-cold HEPES buffer and dried prior to measurement of bound radioactivity by scintillation counting (Beckman LS3800 scintillation counter) using Ultima Gold XR scintillation cocktail. Analysis of ligand binding data."}, "[8]": {"biological_target": "GABAA receptors (washed rat brain membranes)", "assay": "Displacement of [3H]muscimol binding (PDSP)", "conditions": "5 nM [3H]muscimol", "procedure": "Rat brain membranes were prepared as described in the Protocol Manual on the PDSP website (https://pdspdb.unc.edu/pdspWeb/). […] The final concentration of [^3H]muscimol in the assay mixture was 5 nM. […] Analysis of ligand binding data."}, "medial CeA neurons": {"tested_on": "medial CeA neurons", "assay": "Brain slice whole cell patch clamp recording", "type": "cell-based, rat", "conditions": "100 μM, focally applied following DCUK-OEt (0.5 µM)", "method": "Slices were prepared from brains of 5 adult male Wistar rats (250–350 g) as described by Herman et al.[56]. A single slice was transferred to a recording chamber mounted on the stage of an upright microscope (Olympus BX50WI).\nNeurons were visualized and whole cell patch clamp recordings were made as previously described[56]. Series resistance was typically <15 MΩ and was continuously monitored with a hyperpolarizing 10 mV pulse. Electrophysiological properties of cells were determined by pClamp 10 Clampex software online during voltage-clamp recording using a 5 mV pulse delivered after breaking into the cell. The resting membrane potential was determined online after breaking into the cell using the zero current (I = 0) recording configuration and the liquid junction potential was included in the determination. […]\nFrequency, amplitude and decay of spontaneous inhibitory postsynaptic currents (sIPSCs) were analyzed and visually confirmed using a semi-automated threshold based mini detection software (Mini Analysis, Synaptosoft Inc.). Averages of sIPSC characteristics were determined from baseline and experimental drug conditions containing a minimum of 60 events (time period of analysis varied as a product of individual event frequency) and decay kinetics were determined using exponential curve fittings and reported as decay time (ms). […]"}}, "note": "Where two headings read alike, the source gives them in different places."}
{"smiles": "CCOC(=O)c1ncn2c1CN(C)C(=O)c1cc(F)ccc1-2", "note": "[flumazenil]", "values": [{"measurement": "Potentiation of EC10 GABA responses", "setting": "α1β2γ2 GABAA receptors", "result": "51 ± 2", "unit": "%"}]}
{"smiles": "[Zn+2]", "note": "[Zn++]", "values": [{"measurement": "% change of EC10 GABA responses by Zn++", "setting": "α1β1γ2 GABAA receptors; [Zn++] 100 µM", "result": "21 ± 3", "unit": "%"}, {"measurement": "% change of EC10 GABA responses by Zn++", "setting": "α1β2γ1 GABAA receptors; [Zn++] 10 µM", "result": "0.4 ± 1.4", "unit": "%"}, {"measurement": "% change of EC10 GABA responses by Zn++", "setting": "α1β3 GABAA receptors; [Zn++] 1 µM", "result": "-85 ± 3", "unit": "%"}, {"measurement": "% change of EC10 GABA responses by Zn++", "setting": "α5β3 GABAA receptors; [Zn++] 10 µM", "result": "-89 ± 2", "unit": "%"}, {"measurement": "% change of EC10 GABA responses by Zn++", "setting": "α4β3δ GABAA receptors [1]", "result": "-31 ± 6", "unit": "%"}, {"measurement": "% change of EC10 GABA responses by Zn++", "setting": "α1β2γ2 GABAA receptors; a1b2g2, [Zn++] 10 µM", "result": "-9 ± 4", "unit": "%"}, {"measurement": "% change of EC10 GABA responses by Zn++", "setting": "α4β3γ2 GABAA receptors [2]", "result": "-43 ± 4", "unit": "%"}, {"measurement": "% change of EC10 GABA responses by Zn++", "setting": "α5β3γ2 GABAA receptors; [Zn++] 10 µM", "result": "-29 ± 6", "unit": "%"}, {"measurement": "% change of EC10 GABA responses by Zn++", "setting": "α1β3γ2 GABAA receptors; [Zn++] 10 µM", "result": "-19 ± 4", "unit": "%"}, {"measurement": "% change of EC10 GABA responses by Zn++", "setting": "α1β2 GABAA receptors; [Zn++] 10 µM", "result": "-99 ± 1", "unit": "%"}, {"measurement": "% change of EC10 GABA responses by Zn++", "setting": "[3]; [Zn++] 10 µM", "result": "10 ± 2", "unit": "%"}, {"measurement": "% change of EC10 GABA responses by Zn++", "setting": "α1β3δ GABAA receptors; [Zn++] 1 µM", "result": "-35 ± 1", "unit": "%"}]}
{"smiles": "NCCCC(=O)O", "note": "[GABA, γ-aminobutyric acid]", "values": [{"measurement": "nH (Hill coefficient of GABA concentration-response curve)", "setting": "α1β1γ2 GABAA receptors", "result": "0.76 ± 0.07"}, {"measurement": "nH (Hill coefficient of GABA concentration-response curve)", "setting": "α1β2γ1 GABAA receptors", "result": "0.87 ± 0.06"}, {"measurement": "nH (Hill coefficient of GABA concentration-response curve)", "setting": "α1β3 GABAA receptors", "result": "0.97 ± 0.06"}, {"measurement": "nH (Hill coefficient of GABA concentration-response curve)", "setting": "α4β3δ GABAA receptors [4]", "result": "0.84 ± 0.07"}, {"measurement": "nH (Hill coefficient of GABA concentration-response curve)", "setting": "α5β3 GABAA receptors", "result": "0.93 ± 0.07"}, {"measurement": "nH (Hill coefficient of GABA concentration-response curve)", "setting": "α4β3γ2 GABAA receptors [5]", "result": "1.01 ± 0.09"}, {"measurement": "nH (Hill coefficient of GABA concentration-response curve)", "setting": "α1β2γ2 GABAA receptors; a1b2g2", "result": "0.99 ± 0.03"}, {"measurement": "nH (Hill coefficient of GABA concentration-response curve)", "setting": "α5β3γ2 GABAA receptors", "result": "0.93 ± 0.04"}, {"measurement": "nH (Hill coefficient of GABA concentration-response curve)", "setting": "α1β3γ2 GABAA receptors", "result": "1.33 ± 0.08"}, {"measurement": "nH (Hill coefficient of GABA concentration-response curve)", "setting": "α1β2 GABAA receptors", "result": "1.19 ± 0.08"}, {"measurement": "nH (Hill coefficient of GABA concentration-response curve)", "setting": "[3]", "result": "0.81 ± 0.06"}, {"measurement": "nH (Hill coefficient of GABA concentration-response curve)", "setting": "α1β3δ GABAA receptors", "result": "0.78 ± 0.07"}]}
{"smiles": "CCOC(=O)c1cncn1[C@H](C)c1ccccc1", "note": "[Etomidate, etomidate]", "values": [{"measurement": "GABA potentiating effect at α1β2(N265S)γ2", "setting": "[6]", "result": "no GABA potentiating effect"}]}
{"smiles": "O=C(O)c1cc(NC(=O)N(c2ccccc2)c2ccccc2)c2c(Cl)cc(Cl)cc2n1", "note": "[DCUKA, 5,7 dichloro-4-([diphenylcarbamoyl]amino) quinoline-2-carboxylic acid]", "values": [{"measurement": "Effect of co-applied flumazenil on DCUK actions on α1β2γ2 GABAA receptors", "setting": "α1β2γ2 GABAA receptors; 20 μM flumazenil, EC10 GABA", "result": "did not significantly affect"}, {"measurement": "Effect on submaximal GABA (EC10) currents", "setting": "α1β2γ2 GABAA receptors; oocytes containing α1β2γ2 GABAA receptors", "result": "enhanced"}, {"measurement": "Ki", "setting": "[7]", "result": "> 10", "unit": "µM"}, {"measurement": "Ki", "setting": "[8]", "result": "6.6 ± 1.9", "unit": "µM"}]}
{"smiles": "COc1ccc(-c2ccc(=N)n(CCCC(=O)O)n2)cc1", "note": "[gabazine]", "values": [{"measurement": "Holding current when applied after DCUK-OEt", "setting": "medial CeA neurons", "result": "significant reduction in holding current"}]}
{"smiles": "C[C@]12CC[C@@H](O)C[C@@H]1CC[C@@H]1[C@@H]2CC[C@]2(C)C(c3ccccc3)=CC[C@@H]12", "note": "[Compound 17PA, 17-phenyl-(3α,5α)-androst-16-en-3-ol]", "values": [{"measurement": "inhibition at 10 µM", "setting": "α1β2γ2 GABAA receptors; read-out: Inhibition by 17PA of DCUK-OEt potentiation of GABA actions", "result": 35, "unit": "%"}, {"measurement": "inhibition at 10 µM", "setting": "α1β2γ2 GABAA receptors; read-out: Inhibition by 17PA of the potentiating effects of allopregnanolone on GABA-induced currents", "result": 56, "unit": "%"}]}
